Test results taken from US9642869B2, “Boronic acid derivatives and therapeutic uses thereof” (Rempex Pharmaceuticals, Inc., priority 2013, dated 2017).
Read-outs that look alike come from different tables or passages of the source.

Experiments:
ECL1002 [1] = assay: Aztreonam potentiation (MPC@4); type: cell-based; settings: minimum BLI concentration inhibiting growth with 4 μg/mL aztreonam
SHV-5 ec308 [2] = assay: Aztreonam potentiation (MPC@4); type: cell-based; settings: minimum BLI concentration inhibiting growth with 4 μg/mL aztreonam
OXA-48 KP1086 = assay: Biapenem potentiation (MPC@1); type: cell-based; settings: minimum BLI concentration inhibiting growth with 1 μg/mL biapenem
Protocol: (§1) Biapenem was present in the test medium at 1 μg/mL. […] Table 3 summarizes the BLI potency of biapenem potentiation (MPC@1) for two strains overexpressing class A (KPC) and class D (OXA-48) carbapenemases. Biapenem MIC for each strain is also shown.

KP1004 KPC-2 = assay: Biapenem potentiation (MPC@1); type: cell-based; settings: minimum BLI concentration inhibiting growth with 1 μg/mL biapenem
Protocol: as §1

KPC-2 KP1004 = assay: Aztreonam potentiation (MPC@4); type: cell-based; settings: minimum BLI concentration inhibiting growth with 4 μg/mL aztreonam
SHV-12 = SHV-12 (Klebsiella pneumoniae, UniProt P0AD64, E235K/G234S/L31Q); assay: Inhibition of nitrocefin cleavage by purified enzyme (Ki); type: biochemical; settings: nitrocefin reporter substrate, 10 min preincubation; read-out: Ki (SHV-12, NCF)
Protocol: Purified enzymes were mixed with various concentrations of inhibitors in reaction buffer and incubated for 10 min at room temperature. Nitrocefin was added and substrate cleavage profiles were recorded at 490 nm every 10 sec for 10 min.

SHV-5 ec308 [3] = type: cell-based; settings: minimum BLI concentration inhibiting growth with tigemonam at 4 μg/mL
CTX-M-14 KP1005 = type: cell-based
ECL1002 [4] = type: cell-based; settings: minimum BLI concentration inhibiting growth with tigemonam at 4 μg/mL
CTX-M-15 KP1009 = type: cell-based
[5] = minimum BLI concentration inhibiting growth with tigemonam at 4 μg/mL

Sequence of SHV-12 (P0AD64 22-286 L31Q/G234S/E235K): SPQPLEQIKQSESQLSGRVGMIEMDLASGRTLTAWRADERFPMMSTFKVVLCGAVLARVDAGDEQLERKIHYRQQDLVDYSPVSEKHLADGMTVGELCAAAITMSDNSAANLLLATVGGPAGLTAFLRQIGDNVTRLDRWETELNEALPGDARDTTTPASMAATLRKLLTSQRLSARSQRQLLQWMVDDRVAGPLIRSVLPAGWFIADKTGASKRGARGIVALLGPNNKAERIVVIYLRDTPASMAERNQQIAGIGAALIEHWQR

SMILES	AZT MPC4 ECL1002 (ECL1002 [1])	AZT MPC4 SHV-5 ec308 (SHV-5 ec308 [2])	BPM MPC1 OXA-48 KP1086 (OXA-48 KP1086)	BPM MPC1 KP1004 KPC-2 (KP1004 KPC-2)	AZT MPC4 KPC-2 KP1004 (KPC-2 KP1004)	Ki (SHV-12) [nM]	TIG MPC4 SHV-5 ec308 (SHV-5 ec308 [3])	TIG MPC4 CTX-M-14 KP1005 (CTX-M-14 KP1005)	TIG MPC4 ECL1002 (ECL1002 [4])	TIG MPC4 CTX-M-15 KP1009 (CTX-M-15 KP1009)	TIG MPC4 CTX-M-14 KP1005 (CTX-M-14 KP1005; [5])	TIG MPC4 CTX-M-15 KP1009 (CTX-M-15 KP1009; [5])
O=C(N[C@H]1Cc2cccc(C(=O)O)c2OB1O)c1cncs1 [Compound 15, (R)-2-hydroxy-3-(thiazole-5-carboxamido)-3,4-dihydro-2H-benzo[e][1,2]oxaborinine-8-carboxylic acid]	Y (MIC of 1 μg/mL to 10 μg/mL)	X (MIC of less than 1 μg/mL)	Y (MIC of 1 μg/mL to 10 μg/mL)	X (MIC of less than 1 μg/mL)	Y (MIC of 1 μg/mL to 10 μg/mL)	< 1	Y (MIC of 1 μg/mL to 10 μg/mL)	Y (key: X: MIC of less than 1 μg/mL; Y: MIC of 1 μg/mL to 10 μg/mL; Z: MIC of greater than 10 μg/mL)	Y (MIC of 1 μg/mL to 10 μg/mL)	Y (key: X: MIC of less than 1 μg/mL; Y: MIC of 1 μg/mL to 10 μg/mL; Z: MIC of greater than 10 μg/mL)		
CSC(=O)N[C@H]1Cc2cccc(C(=O)O)c2OB1O [Compound 11, (R)-2-hydroxy-3-(methylthiocarbonylamino)-3,4-dihydro-2H-benzo[e][1,2]oxaborinine-8-carboxylic acid]	Y (MIC of 1 μg/mL to 10 μg/mL)	X (MIC of less than 1 μg/mL)	Y (MIC of 1 μg/mL to 10 μg/mL)	X (MIC of less than 1 μg/mL)	Y (MIC of 1 μg/mL to 10 μg/mL)	< 1	Y (MIC of 1 μg/mL to 10 μg/mL)	Y (key: X: MIC of less than 1 μg/mL; Y: MIC of 1 μg/mL to 10 μg/mL; Z: MIC of greater than 10 μg/mL)	Y (MIC of 1 μg/mL to 10 μg/mL)	Y (key: X: MIC of less than 1 μg/mL; Y: MIC of 1 μg/mL to 10 μg/mL; Z: MIC of greater than 10 μg/mL)		
O=C(COCc1ccccc1)N[C@H]1Cc2cccc(C(=O)O)c2OB1O [CPD B, reference compound]	Z (MIC of greater than 10 μg/mL)	Y (MIC of 1 μg/mL to 10 μg/mL)	Z (MIC of greater than 10 μg/mL)	X (MIC of less than 1 μg/mL)	Z (MIC of greater than 10 μg/mL)	< 1	Y (MIC of 1 μg/mL to 10 μg/mL)	Z (key: X: MIC of less than 1 μg/mL; Y: MIC of 1 μg/mL to 10 μg/mL; Z: MIC of greater than 10 μg/mL)	Y (MIC of 1 μg/mL to 10 μg/mL)	Z (key: X: MIC of less than 1 μg/mL; Y: MIC of 1 μg/mL to 10 μg/mL; Z: MIC of greater than 10 μg/mL)		
O=C(N[C@H]1Cc2cccc(C(=O)O)c2OB1O)c1cncnc1 [Compound 18, (R)-2-hydroxy-3-(pyrimidine-5-carboxamido)-3,4-dihydro-2H-benzo[e][1,2]oxaborinine-8-carboxylic acid]	Y (MIC of 1 μg/mL to 10 μg/mL)	Y (MIC of 1 μg/mL to 10 μg/mL)	Y (MIC of 1 μg/mL to 10 μg/mL)	Y (MIC of 1 μg/mL to 10 μg/mL)	Y (MIC of 1 μg/mL to 10 μg/mL)	< 1	Y (MIC of 1 μg/mL to 10 μg/mL)	Y (key: X: MIC of less than 1 μg/mL; Y: MIC of 1 μg/mL to 10 μg/mL; Z: MIC of greater than 10 μg/mL)	Y (MIC of 1 μg/mL to 10 μg/mL)	Y (key: X: MIC of less than 1 μg/mL; Y: MIC of 1 μg/mL to 10 μg/mL; Z: MIC of greater than 10 μg/mL)		
Cn1nnnc1SCC(=O)N[C@H]1Cc2cccc(C(=O)O)c2OB1O [Compound 2, (R)-2-hydroxy-3-(2-(1-methyl-1H-tetrazol-5-ylthio)acetamido)-3,4-dihydro-2H-benzo[e][1,2]oxaborinine-8-carboxylic acid]	Y (MIC of 1 μg/mL to 10 μg/mL)	X (MIC of less than 1 μg/mL)	Y (MIC of 1 μg/mL to 10 μg/mL)	X (MIC of less than 1 μg/mL)	Y (MIC of 1 μg/mL to 10 μg/mL)	< 1	X (MIC of less than 1 μg/mL)	X (key: X: MIC of less than 1 μg/mL; Y: MIC of 1 μg/mL to 10 μg/mL; Z: MIC of greater than 10 μg/mL)	X (MIC of less than 1 μg/mL)	Y (key: X: MIC of less than 1 μg/mL; Y: MIC of 1 μg/mL to 10 μg/mL; Z: MIC of greater than 10 μg/mL)		
CN(C)C(=O)CC(=O)N[C@H]1Cc2cccc(C(=O)O)c2OB1O [Compound 10, (R)-3-(3-(dimethylamino)-3-oxopropanamido)-2-hydroxy-3,4-dihydro-2H-benzo[e][1,2]oxaborinine-8-carboxylic acid]	Y (MIC of 1 μg/mL to 10 μg/mL)	Y (MIC of 1 μg/mL to 10 μg/mL)	Y (MIC of 1 μg/mL to 10 μg/mL)	X (MIC of less than 1 μg/mL)	X (MIC of less than 1 μg/mL)	< 1	Y (MIC of 1 μg/mL to 10 μg/mL)	Y (key: X: MIC of less than 1 μg/mL; Y: MIC of 1 μg/mL to 10 μg/mL; Z: MIC of greater than 10 μg/mL)	X (MIC of less than 1 μg/mL)	X (key: X: MIC of less than 1 μg/mL; Y: MIC of 1 μg/mL to 10 μg/mL; Z: MIC of greater than 10 μg/mL)		
NC(=O)C(=O)N[C@H]1Cc2cccc(C(=O)O)c2OB1O [Compound 17, (R)-3-(2-amino-2-oxoacetamido)-2-hydroxy-3,4-dihydro-2H-benzo[e][1,2]oxaborinine-8-carboxylic acid]	Y (MIC of 1 μg/mL to 10 μg/mL)	X (MIC of less than 1 μg/mL)	Y (MIC of 1 μg/mL to 10 μg/mL)	X (MIC of less than 1 μg/mL)	Y (MIC of 1 μg/mL to 10 μg/mL)	1 to 10	Y (MIC of 1 μg/mL to 10 μg/mL)	Z (key: X: MIC of less than 1 μg/mL; Y: MIC of 1 μg/mL to 10 μg/mL; Z: MIC of greater than 10 μg/mL)	Y (MIC of 1 μg/mL to 10 μg/mL)	Y (key: X: MIC of less than 1 μg/mL; Y: MIC of 1 μg/mL to 10 μg/mL; Z: MIC of greater than 10 μg/mL)		
O=C(CSC(F)(F)F)N[C@H]1Cc2cccc(C(=O)O)c2OB1O [Compound 1, (R)-2-hydroxy-3-(2-(trifluoromethylthio)acetamido)-3,4-dihydro-2H-benzo[e][1,2]oxaborinine-8-carboxylic acid]	Y (MIC of 1 μg/mL to 10 μg/mL)	X (MIC of less than 1 μg/mL)	Y (MIC of 1 μg/mL to 10 μg/mL)	X (MIC of less than 1 μg/mL)	Y (MIC of 1 μg/mL to 10 μg/mL)	< 1	X (MIC of less than 1 μg/mL)		X (MIC of less than 1 μg/mL)		Y (MIC of 1 μg/mL to 10 μg/mL)	Y (MIC of 1 μg/mL to 10 μg/mL)
CN(C)C(=O)C(=O)N[C@H]1Cc2cccc(C(=O)O)c2OB1O [Compound 9, (R)-3-(2-(dimethylamino)-2-oxoacetamido)-2-hydroxy-3,4-dihydro-2H-benzo[e][1,2]oxaborinine-8-carboxylic acid]	Y (MIC of 1 μg/mL to 10 μg/mL)	X (MIC of less than 1 μg/mL)	Z (MIC of greater than 10 μg/mL)	X (MIC of less than 1 μg/mL)	Y (MIC of 1 μg/mL to 10 μg/mL)		Y (MIC of 1 μg/mL to 10 μg/mL)	Y (key: X: MIC of less than 1 μg/mL; Y: MIC of 1 μg/mL to 10 μg/mL; Z: MIC of greater than 10 μg/mL)	Y (MIC of 1 μg/mL to 10 μg/mL)	Y (key: X: MIC of less than 1 μg/mL; Y: MIC of 1 μg/mL to 10 μg/mL; Z: MIC of greater than 10 μg/mL)		
